Experimental data as given in PubChem BioAssay AID256 (DTP/NCI, 2004).
Toxic doses and inconclusive results are not listed. How the source made its calls: active means survival T/C of 150% or more; inactive means T/C below 125% in these data.

Tested on: CD2F1 mice, L1210 leukemia ip, survival T/C
Assay: NCI In Vivo Anticancer Drug Screen. Data for tumor model L1210 Leukemia (intraperitoneal) in CD2F1 (CDF1) mice
Details: higher = longer survival
How it was run: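 In this screen, transplantable tumors were grown in mice given either the compound or its vehicle. Results were expressed as the treated measurement relative to the control measurement.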

[1] = endpoint: mean survival time, dose: 100.0 mg/kg/injection, schedule: Q04DX003 (ip), vehicle: saline sonified
[2] = endpoint: mean survival time, dose: 200.0 mg/kg/injection, schedule: Q04DX003 (ip), vehicle: saline sonified
[3] = endpoint: mean survival time, dose: 400.0 mg/kg/injection, schedule: Q04DX003 (ip), vehicle: saline sonified
[4] = endpoint: mean survival time, dose: 100.0 mg/kg/injection, schedule: Q04DX003 (ip), vehicle: saline with Tween-80
[5] = endpoint: mean survival time, dose: 200.0 mg/kg/injection, schedule: Q04DX003 (ip), vehicle: saline with Tween-80
[6] = endpoint: mean survival time, dose: 400.0 mg/kg/injection, schedule: Q04DX003 (ip), vehicle: saline with Tween-80
[7] = endpoint: mean survival time, dose: 100.0 mg/kg/injection, schedule: Q01DX009 (ip), vehicle: saline with Tween-80
[8] = endpoint: mean survival time, dose: 200.0 mg/kg/injection, schedule: Q01DX009 (ip), vehicle: saline with Tween-80
[9] = endpoint: mean survival time, dose: 400.0 mg/kg/injection, schedule: Q01DX009 (ip), vehicle: saline with Tween-80
[10] = endpoint: mean survival time, dose: 100.0 mg/kg/injection, schedule: Q01DX001 (ip), vehicle: saline with Tween-80
[11] = endpoint: mean survival time, dose: 200.0 mg/kg/injection, schedule: Q01DX001 (ip), vehicle: saline with Tween-80
[12] = endpoint: mean survival time, dose: 400.0 mg/kg/injection, schedule: Q01DX001 (ip), vehicle: saline with Tween-80

Measured: T/C

CCOc1ccncc1[N+](=O)[O-]
inactive: endpoint: mean survival time, dose: 100.0 mg/kg/injection, schedule: Q01DX009 (ip), vehicle: saline sonified 96 % of control | [1] 95 % of control | [2] 95 % of control | [3] 86 % of control

C=CCOc1ccncc1
inactive: endpoint: mean survival time, dose: 12.5 mg/kg/injection, schedule: Q01DX009 (ip), vehicle: saline sonified 101 % of control | endpoint: mean survival time, dose: 12.5 mg/kg/injection, schedule: Q04DX003 (ip), vehicle: saline with Tween-80 93 % of control | endpoint: mean survival time, dose: 25.0 mg/kg/injection, schedule: Q01DX009 (ip), vehicle: saline sonified 100 % of control | endpoint: mean survival time, dose: 25.0 mg/kg/injection, schedule: Q04DX003 (ip), vehicle: saline with Tween-80 93 % of control | endpoint: mean survival time, dose: 50.0 mg/kg/injection, schedule: Q01DX009 (ip), vehicle: saline sonified 101 % of control | endpoint: mean survival time, dose: 50.0 mg/kg/injection, schedule: Q04DX003 (ip), vehicle: saline with Tween-80 93 % of control

CCCCCN1C(=O)CCC1=O
inactive: [4] 112 % of control | [5] 109 % of control | [6] 104 % of control

[C-]#[O+].[Cl][Sn]([Cl])[Cl].[Cl][Sn]([Cl])[Cl].[Pt].c1ccc([PH+](c2ccccc2)c2ccccc2)cc1.c1ccc([PH+](c2ccccc2)c2ccccc2)cc1
inactive: endpoint: median survival time, dose: 3.12 mg/kg/injection, schedule: Q04DX003 (ip), vehicle: saline with Tween-80 108 % of control | endpoint: median survival time, dose: 6.25 mg/kg/injection, schedule: Q04DX003 (ip), vehicle: saline with Tween-80 106 % of control | endpoint: median survival time, dose: 12.5 mg/kg/injection, schedule: Q04DX003 (ip), vehicle: saline with Tween-80 110 % of control | endpoint: median survival time, dose: 25.0 mg/kg/injection, schedule: Q04DX003 (ip), vehicle: saline with Tween-80 113 % of control | endpoint: median survival time, dose: 50.0 mg/kg/injection, schedule: Q04DX003 (ip), vehicle: saline with Tween-80 110 % of control | endpoint: median survival time, dose: 100.0 mg/kg/injection, schedule: Q04DX003 (ip), vehicle: saline with Tween-80 112 % of control | endpoint: median survival time, dose: 200.0 mg/kg/injection, schedule: Q04DX003 (ip), vehicle: saline with Tween-80 108 % of control

Nc1nc(=S)c2n[nH]nc2[nH]1
inactive: endpoint: mean survival time, dose: 25.0 mg/kg/injection, schedule: Q01DX001 (ip), vehicle: saline with Tween-80 102 % of control | endpoint: mean survival time, dose: 50.0 mg/kg/injection, schedule: Q01DX001 (ip), vehicle: saline with Tween-80 104 % of control

C/C(=N/NC(=O)c1ccccc1)c1ccc(O)cc1
inactive: [7] 96 % of control | [4] 96 % of control | [8] 97 % of control | [5] 98 % of control | [9] 91 % of control | [6] 100 % of control

Cc1c(Cl)cccc1NC(=O)COc1ccc(Cl)cc1Cl
inactive: [4] 94 % of control | [5] 98 % of control | [6] 96 % of control

Fc1cc2cc3ccccc3cc2c2ccccc12
inactive: endpoint: mean survival time, dose: 100.0 mg/kg/injection, schedule: Q04DX002 (ip), vehicle: saline with Tween-80 101 % of control | endpoint: mean survival time, dose: 200.0 mg/kg/injection, schedule: Q04DX002 (ip), vehicle: saline with Tween-80 104 % of control | endpoint: mean survival time, dose: 400.0 mg/kg/injection, schedule: Q04DX002 (ip), vehicle: saline with Tween-80 104 % of control

[O-]/[N+](=C\c1ccccc1)C1CCCCC1
inactive: [10] 94 % of control | [11] 95 % of control | [12] 95 % of control

Cc1cc2nc3c(nc2cc1C)-c1ccccc1C3=O
inactive: [4] 94 % of control | [5] 93 % of control | [6] 94 % of control

CCCCCCCCCCCCCCOc1ccc(OCCCCCCCCCCC)cc1
inactive: [11] 89 % of control | [12] 89 % of control

O=C(O)c1ccc(Cl)c(N=C/C=C/c2ccccc2)c1
inactive: endpoint: mean survival time, dose: 75.0 mg/kg/injection, schedule: Q04DX003 (ip), vehicle: saline 97 % of control | endpoint: mean survival time, dose: 150.0 mg/kg/injection, schedule: Q04DX003 (ip), vehicle: saline 100 % of control | endpoint: mean survival time, dose: 300.0 mg/kg/injection, schedule: Q04DX003 (ip), vehicle: saline 100 % of control

Nc1nc(N)c2cc(CNc3ccc(C(=O)NC(CC(=O)O)CC(=O)O)cc3)cnc2n1
inactive: endpoint: mean survival time, dose: 50.0 mg/kg/injection, schedule: Q01DX009 (ip), vehicle: Klucel (hydroxypropylcellulose) (HPC) 94 % of control | endpoint: mean survival time, dose: 100.0 mg/kg/injection, schedule: Q01DX009 (ip), vehicle: Klucel (hydroxypropylcellulose) (HPC) 98 % of control

O=c1oc2ccc(Cl)cc2c(Nc2ccccc2)c1Cl
inactive: [10] 93 % of control | [11] 93 % of control | [12] 90 % of control

COC(=O)CCC(NC(=O)c1cccc(N(C)C=O)c1)C(=O)OC (centres undefined)
inactive: [10] 104 % of control | [4] 100 % of control | [11] 115 % of control | [5] 100 % of control | [12] 104 % of control | [6] 96 % of control

NC(=O)C(c1ccccc1)N1CCOCC1 (centres undefined)
inactive: endpoint: mean survival time, dose: 100.0 mg/kg/injection, schedule: Q01DX009 (ip), vehicle: saline 100 % of control | endpoint: mean survival time, dose: 200.0 mg/kg/injection, schedule: Q01DX009 (ip), vehicle: saline 101 % of control | endpoint: mean survival time, dose: 400.0 mg/kg/injection, schedule: Q01DX009 (ip), vehicle: saline 105 % of control

CS(=O)(=O)c1ccnc2ccccc12
inactive: endpoint: mean survival time, dose: 100.0 mg/kg/injection, schedule: Q04DX003 (ip), vehicle: saline 98 % of control | endpoint: mean survival time, dose: 200.0 mg/kg/injection, schedule: Q04DX003 (ip), vehicle: saline 92 % of control | endpoint: mean survival time, dose: 400.0 mg/kg/injection, schedule: Q04DX003 (ip), vehicle: saline 95 % of control

CC(=O)c1ccc2c(c1)Cc1cc(C(C)=O)ccc1-2
inactive: [1] 96 % of control | [2] 93 % of control | [3] 98 % of control

O=C(NC(O)C(Cl)(Cl)Cl)c1ccccc1 (centres undefined)
inactive: [7] 94 % of control | [4] 107 % of control | [8] 89 % of control | [5] 107 % of control | [9] 91 % of control | [6] 107 % of control

CC(=O)OC1CCC2(C)C(C1)C(=O)OC1C2CCC2(C)C(C(C)CCCC(C)C)CCC12 (centres undefined)
inactive: [4] 94 % of control | [5] 94 % of control | [6] 94 % of control

CNc1nc(SC)nc2c1cnn2C1OC(CO)C(O)C1O (centres undefined)
inactive: endpoint: median survival time, dose: 10.75 mg/kg/injection, schedule: Q01DX005 (ip), vehicle: saline with Tween-80 103 % of control | endpoint: median survival time, dose: 21.5 mg/kg/injection, schedule: Q01DX005 (ip), vehicle: saline with Tween-80 97 % of control | endpoint: median survival time, dose: 43.0 mg/kg/injection, schedule: Q01DX005 (ip), vehicle: saline with Tween-80 107 % of control | endpoint: median survival time, dose: 86.0 mg/kg/injection, schedule: Q01DX005 (ip), vehicle: saline with Tween-80 100 % of control

COc1ccc(S(=O)(=O)N=N/C=C2\C=CC=CN2O)cc1OC
inactive: endpoint: median survival time, dose: 3.12 mg/kg/injection, schedule: Q01DX009 (ip), vehicle: saline with Tween-80 101 % of control | endpoint: median survival time, dose: 6.25 mg/kg/injection, schedule: Q01DX009 (ip), vehicle: saline with Tween-80 107 % of control | endpoint: median survival time, dose: 12.5 mg/kg/injection, schedule: Q01DX009 (ip), vehicle: saline with Tween-80 104 % of control | endpoint: median survival time, dose: 18.0 mg/kg/injection, schedule: Q01DX009 (ip), vehicle: saline with Tween-80 103 % of control | endpoint: median survival time, dose: 37.0 mg/kg/injection, schedule: Q01DX009 (ip), vehicle: saline with Tween-80 105 % of control | endpoint: median survival time, dose: 100.0 mg/kg/injection, schedule: Q01DX009 (ip), vehicle: saline with Tween-80 113 % of control | endpoint: median survival time, dose: 150.0 mg/kg/injection, schedule: Q01DX009 (ip), vehicle: saline with Tween-80 98 % of control | endpoint: median survival time, dose: 200.0 mg/kg/injection, schedule: Q01DX009 (ip), vehicle: saline with Tween-80 95 % of control

OCC(O)C(O)C(O)C(O)/C=N\Nc1ccccc1 (centres undefined)
inactive: [10] 100 % of control | [11] 100 % of control | [12] 95 % of control
